This note sets out measurements from ChEMBL document CHEMBL1154730, “Novel quinolines and pyrimido[4,5-b]quinolines bearing biologically active sulfonamide moiety as a new class of antitumor agents” (Eur J Med Chem, 2010).

SMILES strings stand for the structures. Converted amounts (≈) assume the structure as drawn.

A short description of assay [1]: Cytotoxicity against mouse EAC cells assessed as non-viable cells at 50 ug/ml after 2 hrs by trypan blue exclusion. It counts as functional, Ehrlich.
Assay [2] in a line: Cytotoxicity against mouse EAC cells after 2 hrs by trypan blue exclusion. It is filed as functional, cell-based. The conditions noted are these: ehrlich.
Assay [3] in a line: Cytotoxicity against mouse EAC cells assessed as non-viable cells at 25 ug/ml after 2 hrs by trypan blue exclusion. It is filed as functional, Ehrlich.
The nature of assay [4]: Cytotoxicity against mouse EAC cells assessed as non-viable cells at 10 ug/ml after 2 hrs by trypan blue exclusion. It is filed as functional, Ehrlich.
Assay [5] in a line: Cytotoxicity against mouse EAC cells assessed as non-viable cells at 100 ug/ml after 2 hrs by trypan blue exclusion. It counts as functional, Ehrlich.

In the case of `Nc1nc(=S)[nH]c2c1C(c1ccc(Cl)cc1Cl)C1=C(CCCC1=O)N2c1ccc(S(N)(=O)=O)cc1` (stereo not given), the Activity in assay [1] was 100%; in assay [3], 50%; in assay [4] it was 30%; in assay [5], 100%. The compound further gave an IC50 in assay [2] of 25 µg/mL (≈ 45.6 µM).
For the compound `N#CC1=C(NC(=S)Nc2ccccc2)N(c2ccc(S(N)(=O)=O)cc2)C2=C(C(=O)CCC2)C1c1ccc(Cl)cc1Cl` (stereo not given), the Activity in assay [1] was determined as 55%; in assay [3], 50%; in assay [4] it was 40%; in assay [5] it was 95%. Also, the 50% inhibitory concentration (IC50) in assay [2] turned out to be 25 µg/mL (≈ 40 µM).
The like results for `N#CC1=C(NC(=S)Nc2ccc(Cl)cc2)N(c2ccc(S(N)(=O)=O)cc2)C2=C(C(=O)CCC2)C1c1ccc(Cl)cc1Cl` (stereo not given) were, in that order, 100%, 60%, 30%, 100% and 40 µg/mL (≈ 60.7 µM).
For the compound `N=c1c2c([nH]c(=S)n1-c1ccccc1)N(c1ccc(S(N)(=O)=O)cc1)C1=C(C(=O)CCC1)C2c1ccc(Cl)cc1Cl` (stereo not given), the Activity is on record as 50% in assay [1], 30% in assay [3], 10% in assay [4] and 60% in assay [5]. The compound further had a concentration for half-maximal inhibition (IC50) in assay [2] of 50 µg/mL (≈ 80.1 µM).
Taken in the same sequence, the figures for `N=c1c2c([nH]c(=S)n1-c1ccc(Br)cc1)N(c1ccc(S(N)(=O)=O)cc1)C1=C(C(=O)CCC1)C2c1ccc(Cl)cc1Cl` (stereo not given) were 50%, 30%, 30%, 70% and 50 µg/mL (≈ 71.1 µM).
Turning to `NS(=O)(=O)c1ccc(N2C3=C(C(=O)CCC3)C(c3ccc(Cl)cc3Cl)c3c2[nH]c(=S)[nH]c3=S)cc1` (stereo not given), the Activity in assay [1] is 39%; in assay [3] it was 30%; in assay [4] it was 11%; in assay [5], 57%. In addition, the 50% inhibitory concentration (IC50) in assay [2] is greater than 100 µg/mL.
The like results for `N#CC1=C(NC(=O)CCC(=O)O)N(c2ccc(S(N)(=O)=O)cc2)C2=C(C(=O)CCC2)C1c1ccc(Cl)cc1Cl` (stereo not given) were, in that order, 50%, 35%, 20%, 60% and 50 µg/mL (≈ 84.8 µM).
Taken in the same sequence, the figures for `CCCCNC(=S)NC1=C(C#N)C(c2ccc(Cl)cc2Cl)C2=C(CCCC2=O)N1c1ccc(S(N)(=O)=O)cc1` (stereo not given) were 35%, 30%, 30%, 40% and greater than 100 µg/mL.
As to `Nc1nc(=O)[nH]c2c1C(c1ccc(Cl)cc1Cl)C1=C(CCCC1=O)N2c1ccc(S(N)(=O)=O)cc1` (stereo not given), the Activity in assay [1] is 90%; in assay [3] it was 80%; in assay [4], 80%; in assay [5], 100%. For the same compound, the concentration for half-maximal inhibition (IC50) in assay [2] is 6.9 µg/mL (≈ 13 µM).
In the case of `C=CCn1c(=S)[nH]c2c(c1=N)C(c1ccc(Cl)cc1Cl)C1=C(CCCC1=O)N2c1ccc(S(N)(=O)=O)cc1` (stereo not given), the Activity in assay [1] came to 50%; in assay [3], 40%; in assay [4], 30%; in assay [5] it was 75%. Further, the IC50 in assay [2] was 50 µg/mL (≈ 85 µM).
Take `C=CCNC(=S)NC1=C(C#N)C(c2ccc(Cl)cc2Cl)C2=C(CCCC2=O)N1c1ccc(S(N)(=O)=O)cc1` (stereo not given): the Activity amounted to 33% in assay [1], 30% in assay [3], 10% in assay [4] and 40% in assay [5]. In addition, the IC50 in assay [2] was greater than 100 µg/mL.
The like results for `CCCCn1c(=S)[nH]c2c(c1=N)C(c1ccc(Cl)cc1Cl)C1=C(CCCC1=O)N2c1ccc(S(N)(=O)=O)cc1` (stereo not given) were, in that order, 80%, 70%, 70%, 80% and 7 µg/mL (≈ 11.6 µM).
For `N#CC1=C(N)N(c2ccc(S(N)(=O)=O)cc2)C2=C(C(=O)CCC2)C1c1ccc(Cl)cc1Cl` (stereo not given), the Activity was 65% in assay [1], 50% in assay [3], 40% in assay [4] and 95% in assay [5]. This compound also registered an IC50 in assay [2] of 25 µg/mL (≈ 51.1 µM).
In the case of `N#CC1=C(N2C(=O)CCC2=O)N(c2ccc(S(N)(=O)=O)cc2)C2=C(C(=O)CCC2)C1c1ccc(Cl)cc1Cl` (stereo not given), the Activity turned out to be 70% in assay [1], 50% in assay [3], 20% in assay [4] and 90% in assay [5]. Further, in assay [2], the concentration for half-maximal inhibition (IC50) stood at 25 µg/mL (≈ 43.7 µM).
`N#CC1=C(NC(N)=O)N(c2ccc(S(N)(=O)=O)cc2)C2=C(C(=O)CCC2)C1c1ccc(Cl)cc1Cl` (stereo not given): the Activity worked out at 40% in assay [1], 35% in assay [3], 20% in assay [4] and 60% in assay [5]. In addition, the IC50 in assay [2] was 75 µg/mL (≈ 141 µM).
Taken in the same sequence, the figures for `N#CC1=C(NC(=S)Nc2ccc(Br)cc2)N(c2ccc(S(N)(=O)=O)cc2)C2=C(C(=O)CCC2)C1c1ccc(Cl)cc1Cl` (stereo not given) were 90%, 50%, 50%, 90% and 25 µg/mL (≈ 35.5 µM).
For `N#CC1=C(NS(=O)(=O)c2ccc([N+](=O)[O-])cc2)N(c2ccc(S(N)(=O)=O)cc2)C2=C(C(=O)CCC2)C1c1ccc(Cl)cc1Cl` (stereo not given), the Activity in assay [1] was 85%; in assay [3], 85%; in assay [4], 50%; in assay [5] it was 90%. Also, the IC50 in assay [2] was found to be 20 µg/mL (≈ 29.6 µM).
Consider `N#CC1=C(NS(=O)(=O)c2ccc(Br)cc2)N(c2ccc(S(N)(=O)=O)cc2)C2=C(C(=O)CCC2)C1c1ccc(Cl)cc1Cl` (stereo not given), for which the Activity in assay [1] is given as 90%; in assay [3], 90%; in assay [4], 90%; in assay [5], 100%. The compound further returned a 50% inhibitory concentration (IC50) in assay [2] of 5.5 µg/mL (≈ 7.76 µM).
On to `N=c1c2c([nH]c(=S)n1-c1ccc(Cl)cc1)N(c1ccc(S(N)(=O)=O)cc1)C1=C(C(=O)CCC1)C2c1ccc(Cl)cc1Cl` (stereo not given), for which the Activity in assay [1] is reported as 90%; in assay [3] it was 60%; in assay [4], 50%; in assay [5], 95%. In assay [2], this compound registered a half-maximal inhibitory concentration (IC50) of 10 µg/mL (≈ 15.2 µM).
Taken in the same sequence, the figures for `COc1cccc2c1C(=O)c1c(O)c3c(c(O)c1C2=O)C[C@@](O)(C(=O)CO)C[C@@H]3O[C@H]1C[C@H](N)[C@H](O)[C@H](C)O1` [DOXORUBICIN] were 68%, 32%, 19%, 100% and 38 µg/mL (≈ 69.9 µM).

As a reminder, the IC50 is the concentration at which inhibition is half-maximal.
